One data set has as its target FGFR4 (Homo sapiens, UniProt P22455). The data set is described as follows: FGFR4 kinase activity inhibition assay (Caliper mobility shift). In kind it is biochemical. As to the method: 1. FGFR4 Kinase Activity Inhibition Assay
The FGFR4 protein kinase activity was determined by using the Caliper mobility shift assay technology. The compound was dissolved in DMSO and then diluted with a kinase buffer, and 5 μL of the compound (10% DMSO) at a 5-fold final reaction concentration was added to a 384-well plate. 10 μL of a 2.5-fold enzyme (FGFR4) solution was added, and then the mixture was incubated at room temperature for 10 min. 10 μL of a 2.5-fold substrate (FAM-labeled peptide and ATP) solution was added. The mixture was incubated at 28° C. for 30-60 min, and then 25 μL of a terminating solution was added to terminate the reaction. Conversion rate data were read on Caliper EZ Reader II (Caliper Life Sciences). The conversion rate was converted into inhibition data date (% inhibition rate=(max−sample conversion rate)/(max−min)×100), wherein max referred to the conversion rate of the DMSO control, and min referred to the conversion rate of the enzyme-free control. The concentration and inhibition rate of the compound were used as the abscissa and ordinate to plot the curve, and the XLFit Excel Add-in version 4.3.1 software was used to fit the curve and calculate the IC50 value.

Data set [1] in a line: Pharmacokinetic study in rats. In kind it is in vivo, SD rats. The conditions noted are these: rat. From the text: Test Example 6: Pharmacokinetic Study of Compound of Formula B in Rats
Assay drug: the compound of formula B obtained in Preparation Example 1.
Instrument: LC-MS/MS-13 (TQ5500, Triple quad), with the operation software of Xcalibur2.0.7 (Thermo Fisher Scientific, USA); LC-10ADvp liquid chromatography system (Shimadzu, Japan); Shimadzu LC-20AD liquid chromatography pump; Shimadzu CBM-20A system controller; Shimadzu CTO-20A column oven; and SIL-20AC autosampler (Shimadzu, Japan). Chromatographic column: Agilent Zorbax SB-CN 3.5 u 100×2.1 mm; column temperature: 40° C.; mobile phase A: 0.1% aqueous formic acid solution; mobile phase B: a 0.1% solution of formic acid in acetonitrile; flow rate: 0.60 mL/min. The gradient elution was performed as follows: from 0 to 0.5 min, the mobile phase B was increased from 1% to 90%; from 0.5 to 1.2 min, 90% of the mobile phase B was maintained; starting from 1.21 min, the mobile phase B was changed back to 1%; and elution was stopped at 1.60 min.
Animals: 6 male SD rats were supplied by Shanghai Sippe-Bk Lab Animal Co., Ltd. The body weight range was 180-220 g. After purchase, the rats were bred in the laboratory of the experimental animal center for 2 days for later use. The rats were fasted 10-14 h before administration and 4 h after administration, and given ad libitum access to water during the assay. The rats were randomly divided into two groups, with 3 rats in each group. One group was intravenously injected, and the other group was intragastrically administered.
Preparation of intragastric administration solution: the compound of formula B (4.85 mg) was precisely weighed out, and a mixed aqueous solution (9.70 mL) containing 0.5% methylcellulose and 0.4% Tween-80 was added, followed by sonication at room temperature to prepare a 0.5 mg/mL suspension. Preparation of intravenous injection solution: the compound of formula B (2.79 mg) was precisely weighed out, and DMSO (21 μL), PEG200 (2.79 mL), and normal saline (4.164 mL) were added to prepare a 0.4 mg/mL solution.
Blood was collected in the intragastric administration group about 0.25 h before administration and 0.25 h, 0.5 h, 1 h, 1.5 h, 2 h, 4 h, 6 h, 8 h, 12 h, and 24 h after administration. Blood was collected in the intravenous administration group about 0.25 h before administration and 0.083 h, 0.25 h, 0.5 h, 0.75 h, 1 h, 2 h, 4 h, 8 h, 12 h, and 24 h after administration. The blood was collected from the jugular vein or other venipuncture at 0.25 mL/time point and anticoagulated with EDTA-K2 or EDTA-K3. The collected blood was placed on the ice. After the blood samples were collected, plasma was separated by centrifugation (centrifugation conditions: 6800 g/min, 6 min, 2-8° C.). The collected plasma samples were stored in a refrigerator at −80° C. for testing prior to analysis.
The compound of the formula B was accurately weighed out and formulated into different concentrations, and quantitative analysis was performed on a mass spectrometer to establish a standard curve. The concentration of the compound of formula B in the plasma described above was then measured to obtain the concentrations of the compound of formula B at different time points. All the measured data were collected and processed by relevant software, and pharmacokinetic parameters (mainly including kinetic parameters Tmax, T1/2, Cmax, AUC0-t, etc.) were calculated by adopting a statistical moment method. […]

The test system of a further data set is Huh7 cell. Put plainly: Inhibition assay on Huh-7 tumor cell proliferation (CTG). It is filed as cell-based. The following applies: Homo sapiens, 72 h or 168 h drug treatment. As for the experimental part:
2. Inhibition Assay of Compound on Huh-7 Tumor Cell Proliferation
An Huh7 cell suspension was adjusted to 5×10e4 cells/mL or 2×10e4 cells/mL with DMEM+2 mM Glutamine+10% FBS medium. The cell suspension (100 μL) was added to each well of a 96-well cell culture plate at a final cell concentration of 5000 cells/well (72 h) or 2000 cells/well (168 h). The test compound was dissolved in DMSO as a 10 mmol stock solution. Compounds at 200× final concentration were prepared using the stock solution and DMSO, and 3×serial dilutions were prepared and diluted 20-fold with the medium. Finally, 10 μL of the corresponding 10-fold solution was added to each well of each cell strain, a single well for each drug concentration. […] After 72 h or 168 h of drug treatment, 100 μL of a CTG solution which was pre-melted and equilibrated to room temperature was added to each well according to CTG operation instructions, and the solution was mixed well using a microplate shaker for 2 min, left to stand at room temperature for 10 min, and measured for chemiluminescence signal values using an EnSpire plate reader. The cell survival rate was calculated using the following formula: (Vsample−Vblank)/(Vvehicle control−Vblank)×100%, wherein Vsample was the reading of the drug treatment group, Vvehicle control was the average value of the solvent control group, and Vblank was the average value of the blank control well. […]

The mark [2] stands for this setting: male, SD, plasma, iv, intravenously injected, 2.0 mg/kg.
The mark [3] stands for this setting: male, SD, plasma, po, intragastrically administered, 5 mg/kg.

Structures are written as SMILES. A value given as a limit tells only on which side of the number the result lay.

Sequence of FGFR4 (P22455 22-802): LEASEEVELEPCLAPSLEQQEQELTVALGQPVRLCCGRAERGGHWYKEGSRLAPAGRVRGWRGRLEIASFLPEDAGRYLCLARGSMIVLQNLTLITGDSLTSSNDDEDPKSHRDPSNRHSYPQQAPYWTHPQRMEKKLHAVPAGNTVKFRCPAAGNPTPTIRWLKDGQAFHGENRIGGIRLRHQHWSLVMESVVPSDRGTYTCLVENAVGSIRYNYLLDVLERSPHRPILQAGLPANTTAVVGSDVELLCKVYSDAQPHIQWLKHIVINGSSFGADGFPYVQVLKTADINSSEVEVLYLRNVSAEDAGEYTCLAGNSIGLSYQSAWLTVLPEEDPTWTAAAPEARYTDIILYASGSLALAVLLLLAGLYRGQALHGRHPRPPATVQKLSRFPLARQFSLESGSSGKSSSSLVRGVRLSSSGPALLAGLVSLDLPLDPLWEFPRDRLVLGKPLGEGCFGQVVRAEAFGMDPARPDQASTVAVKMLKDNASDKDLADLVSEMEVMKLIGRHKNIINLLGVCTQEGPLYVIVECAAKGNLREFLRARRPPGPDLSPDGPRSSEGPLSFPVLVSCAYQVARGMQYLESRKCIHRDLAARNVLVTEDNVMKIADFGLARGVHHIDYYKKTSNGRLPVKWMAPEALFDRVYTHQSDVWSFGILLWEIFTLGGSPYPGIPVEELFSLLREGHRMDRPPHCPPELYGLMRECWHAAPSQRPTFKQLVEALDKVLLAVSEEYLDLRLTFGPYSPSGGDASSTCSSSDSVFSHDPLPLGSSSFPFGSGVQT

One may read the IC50 as the point on the concentration scale where inhibition reaches its midpoint. By AUC(0-t) is commonly meant the area under the concentration-time curve up to a stated or last time point. The low end stands for low exposure, the high end for high exposure. In general, clearance refers to a measure of how efficiently the substance is removed, as volume per time. The half-life is how long it takes for the measured level to halve. Read a low half-life as rapid decline. For orientation: bioavailability means dose-corrected exposure relative to a reference, in per cent. The term Cmax denotes the highest concentration seen after dosing. For the molecule `N#Cc1cnc(NC(=O)N2CCCc3cc(CN4CCN5CCC[C@H]5C4=O)c(C=O)nc32)cc1NC1CC1` [compound of formula B], at FGFR4, the IC50 is < 5 nM. In data set [1] (setting [2]), the AUC(0-t) is 3980 ng·h/mL, the clearance is 8.63 mL/min/kg and the half-life was 1.88 h. Moreover, the bioavailability in data set [1] (male, SD, plasma, oral, intragastric 5 mg/kg vs intravenous 2.0 mg/kg, read-out: absolute bioavailability) turned out to be 48.6%. Also, in data set [1] (setting [3]), the AUC(0-t) came out at 4840 ng·h/mL, the Cmax was 1220 ng/mL and the half-life was 1.95 h. For the same molecule, in data set [1] (male, SD, plasma, po, intragastrically administered, 5 mg/kg, read-out: time at which the plasma concentration reached the peak value (Tmax)), the Tmax stood at 2.67 h. In data set [1] (intravenously injected, 2.0 mg/kg), this molecule gave a volume distribution of 0.883 L/kg. Besides, the IC50 in the data set on Huh7 cell was < 10 nM.
